# Laboratory results from US11197856B2, “Bicyclic compounds and methods for their use in treating autism” (priority 2013, dated 2021).
# Key:
# cerebellar explants = assay: Cerebellar explants, glutamate/3-nitropropionic acid neurotoxicity; assay type: cell-based, Wistar rats
# Procedure: Cover slips were placed into a large Petri dish and washed in 70% alcohol for 5 minutes, then washed with Millipore H2O. The cover slips were air dried, and coated with Poly-D-Lysine (1 mg/ml stock solution in PBS, 90-100 μl) for 2 hours at 34° C.
# Postnatal day 8 Wistar rats were used for the study. The rats were sacrificed and placed in ice for 1 minute, decapitated and the cerebellum removed and placed on ice. Cerebellum tissue was placed in 1 ml of 0.65% glucose-supplemented PBS (10 μl 65% stock D (+)glucose/1 ml PBS) in a large Petri dish, chopped up into smaller sections and triturated with a 1 ml insulin syringe via a 23 G (0.4 mm) needle, and then squirted back into the glucose solution in the large Petri dish. The tissue was sieved through (125 μm pore size gauze) and centrifuged (2 minutes at 60 g) twice to exchange the medium into serum-free BSA-supplemented START V medium (Biochrom, Germany). The second centrifugation step was done with 1 ml of START V medium. The microexplants were reconstituted into 500 μl of START V medium and put on ice.
# Two hours after PDL-coating, the slides were washed with Millipore H2O and air dried. Each slide was placed into a small Petri dish (diameter: 35 mm) and 40 μl of START V/cell suspension was added. The tissue was incubated for 2 hours at 34° C. (settlement period). START V-medium (1 ml) was then added to the Petri dish and cultivated at 34° C. in the presence of 5% CO2 in air at 100% humidity for 48 hours.
# For the study, certain explant cultures were exposed to vehicle (PBS) only. In the first study (Study 1) 10 μl of toxin 1 (L-glutamate—100 mM in Millipore water; final concentration; 1 mM) and 10 μl of toxin 2 (3-nitropropionic acid—50 mM—pH 7—in Millipore water, final concentration: 0.5 mM) was applied simultaneously with the drug to be tested ([…]). In each case, the drugs were left in contact with the explants for the duration of the study.
# After explants were exposed to drugs for the study period, cells were then rinsed in PBS and then fixed in increasing concentrations of paraformaldehyde (500 μl of 0.4% PFA was applied; then 1.2% PFA; then 3% PFA and finally 4% PFA (each fixation step: 2-3 minutes). Finally, the microexplants were rinsed in PBS.
# Neurons in the explants were then evaluated for morphology (presence of neurites) and counted as live cells per microscopic field. Four fields displaying highest cell density were counted per cover slip and the data presented as mean±standard error of the mean (SEM); n=4 each. Statistical significance was evaluated by using the non-paired Student's t-test.
# [1] = tested on: animals with scopolamine-induced memory impairment; assay: Morris Water Maze (MWM) test with scopolamine-induced memory impairment; assay type: in vivo, Wistar rats; settings: scopolamine 0.3 mg/kg i.p.; day 4 of acquisition
# Source text: The first part of the study involved acute testing of cG-2-AllylP in the Morris Water Maze Memory (MWM) model. The MWM test is one of the most frequently used tests for assessing spatial memory in rats and is well recognized to accurately predict effects of disease and treatment on spatial memory generally. Therefore, the MWM test reflects effects of disease and treatment in human subjects. The standard procedure for MWM was followed. We used a circular swimming pool (80 cm depth×150 cm diameter) filled with opaque water, with the temperature maintained at 20° C. […] On days 1-4 of the experiment rats underwent memory acquisition trials with 6 trials (60 seconds each) in each day of testing (habituation phase). Latency to reach the platform was recorded and the daily reduction of average latency was used to measure the capability to learn where the hidden platform was. […] Experimental groups are detailed in the Table 4 below. On […], the probe MWM test was performed with the platform removed. There were 6 trials, each of maximum duration of 60s, at least 3 min rest between trials). […] Data was collected and analysed using Any-maze (v4.2) software. The data generated from behavioural tests was analysed using one-way ANOVA for determining the difference between the aged-groups. […]
smiles,measurement,setting,value
"C[C@@]12CCCN1C(=O)C1(CCCC1)NC2=O [Cyclic cyclopentyl-G-2MeP, (8aS)-Methyl-spiro[cyclopentane-1,3(4H)-tetrahydropyrrolo[1,2-a]pyrazine]-1,4(2H)-dione]",numbers of cells having neurites,cerebellar explants; administered simultaneously with glutamate,significantly increased the number of cells having neurites
same,glutamate-induced neurotoxicity,cerebellar explants; low doses (cG-2-AllylP: 100 pm to 10 nm),significant decrease in glutamate-induced neurotoxicity
"N[C@@H](CCC(=O)O)C(=O)O [Glutamate, L-glutamate, reference compound]",loss of cerebellar neurons having neurites,cerebellar explants; glutamate 1 mM vs vehicle-treated controls,~85%
"CN1[C@@H]2C[C@@H](OC(=O)[C@H](CO)c3ccccc3)C[C@H]1[C@@H]1O[C@@H]12 [scopolamine, reference compound]",time to platform,[1],approximately 208 % of control
